In patent publication US6492416B1, “4,5-diaryl-3(2H)-furanone derivatives as cyclooxygenase-2 inhibitors” (Pacific Corporation, priority 1999, dated 2002):
Values after ≈ are worked out from the molar mass of the structure shown.

Legend:
male SD rats = test: Antiinflammatory potency by adjuvant arthritis (AA); type: in vivo; conditions: daily oral dose day 14 to day 22, rat
Protocol: Arthritis was induced in male SD rats weighing 180-200 g by subcutaneous injection of Mycobacterium butyricum mixed in 0.1 ml of incomplete Freund's adjuvanat into the base of the tail. The foot volumes were measured using a displacement plethysomometer 14 days after the injection of the adjuvant. Animals with paw volumes greater than the normal paw volumes (without the adjuvant treatment) by 0.37 ml were selected, and then randomized. A designated daily dose of a compound of this invention, which was suspended in 1% aqueous methylcellulose solution, was administered to the randomized rats with arthritis by oral gavage daily once beginning on day 14 after the injection of the adjuvant. The administration of the compound continued till day 22 after the injection of the adjuvant, and the paw volumes were measured on daily basis using a displacement plethysmometer.
% Inhibition of AA=(1−Δtreated/Δcontrol)×100
wherein Δtreated=[(paw volume at day 22)/(paw volume at day 14)−1] for a drug-administered rat, and Δcontrol=[(paw volume at day 22)/(paw volume at day 14)−1] for a rat without drug administration.
ED50 value was determined b a dose-response curve for each compound.

[1] = test system: male Sprague-Dawley (SD) rats; test: Carrageenan-induced foot edema in rats (CFE); type: in vivo; conditions: oral dose 3 mg/kg body weight, rat, paw volume 3 hours after Carrageenan
Protocol: An appropriate amount of a compound of this invention suspended in 1% methylcellulose (MC) solution was administered to male Sprague-Dawley (SD) rats weighing 150˜200 g by oral gavage. The volume of the administered vehicle for a compound of this invention was controlled to be smaller than 10 ml/kg body weight of the animal. One hour later, 0.1 ml of 1% Carrageenan saline solution was directly injected into the right paw of the rats to induce edema in the paw. The paw volumes at 0 hour and at 3 hours after the injection of Carrageenan were measured by using a displacement plethysmometer (Ugo Basile, Italy). The paw volumes were used to calculate % inhibition of CFE by an amount of a compound of this invention according to the following equation.
% Inhibition of CFE=(1−Δtreated/Δcontrol)×100
wherein Δtreated=[paw volume at three hours after the Carrageenan injection−paw volume right after Carrageenan injection] for a drug-administered rat, and Δcontrol=[paw volume at three hours after the Carrageenan injection−paw volume right after Carrageenan injection] for a rat without drug administration.
In order to determine the inhibitory activity of a compound of this invention at a dose, usually 5 to 8 animals were used both for drug-treated group and for control group.

COX-2 = target: T1, COX-2 (Mus musculus, UniProt Q05769); test: Evaluation of COX-2 activity: PGE2 formation in aspirin-treated, LPS-stimulated mouse peritoneal macrophages; type: cell-based
T1 sequence (Q05769 18-604): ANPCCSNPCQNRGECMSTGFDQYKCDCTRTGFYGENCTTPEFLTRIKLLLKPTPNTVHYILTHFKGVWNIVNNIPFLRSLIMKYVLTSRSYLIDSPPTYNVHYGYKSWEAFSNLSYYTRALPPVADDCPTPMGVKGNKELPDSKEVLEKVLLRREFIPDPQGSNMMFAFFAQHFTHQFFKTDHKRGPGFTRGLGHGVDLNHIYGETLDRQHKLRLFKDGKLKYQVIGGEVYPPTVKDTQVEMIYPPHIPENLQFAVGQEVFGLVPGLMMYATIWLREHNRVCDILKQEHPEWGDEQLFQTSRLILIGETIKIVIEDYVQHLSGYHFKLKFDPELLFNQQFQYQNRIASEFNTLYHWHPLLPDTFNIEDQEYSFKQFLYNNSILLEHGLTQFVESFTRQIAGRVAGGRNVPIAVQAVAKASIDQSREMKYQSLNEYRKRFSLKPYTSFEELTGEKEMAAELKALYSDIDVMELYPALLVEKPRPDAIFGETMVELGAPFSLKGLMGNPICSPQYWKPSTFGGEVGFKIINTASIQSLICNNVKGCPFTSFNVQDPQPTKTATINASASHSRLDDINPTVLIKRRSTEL
Outline: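 C57BL/6 peritoneal macrophages treated with 500 μM aspirin to block COX-1, adhered, then stimulated with 10 μg/ml LPS for 16 h at 37 °C to induce COX-2.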

Structure (SMILES) | IC50, μg/ml COX-2 (COX-2) | Adjuvant Arthritis ED50 (male SD rats) | % Inhibition (CFE) [1]
CC1(C)OC(c2ccc(S(C)(=O)=O)cc2)=C(c2cc(F)cc(F)c2)C1=O [Example 11, 4-(3,5-Difluorophenyl)-2,2-dimethyl-5-{4-(methylsulfonyl)phenyl}-3(2H)-furanone] | 0.05 µg/mL (≈ 0.132 µM) | 0.03 mg/kg body weight | –
CC1(C)OC(c2ccc(S(N)(=O)=O)cc2F)=C(c2ccc(F)cc2)C1=O [Example 334] | 0.03 µg/mL (≈ 0.0791 µM) | 0.09 mg/kg body weight | 37%
CC1(C)OC(c2ccc(S(C)(=O)=O)cc2)=C(c2cccc(F)c2)C1=O [Example 4, 2,2-Dimethyl-4-(3-fluorophenyl)-5-{4-(methylsulfonyl)phenyl}-3(2H)-furanone] | 0.02 µg/mL (≈ 0.0555 µM) | 0.07 mg/kg body weight | 36%

Further lines, with some results ahead:

IC50, μg/ml COX-2 (COX-2) | Structure (SMILES) | Adjuvant Arthritis ED50 (male SD rats) | % Inhibition (CFE) [1]
0.0067 µg/mL (≈ 0.0185 µM) | CC1(C)OC(c2ccc(S(N)(=O)=O)cc2)=C(c2cccc(F)c2)C1=O [Example 129, 5-{4-(aminosulfonyl)phenyl}-2,2-dimethyl-4-(3-fluorophenyl)-3(2H)-furanone] | 0.02 mg/kg body weight | 47%
0.014 µg/mL (≈ 0.0371 µM) | CC1(C)OC(c2ccc(S(N)(=O)=O)cc2)=C(c2cccc(Cl)c2)C1=O [Example 126] | 0.03 mg/kg body weight | 39%
